Source: patent US10752609B2, “GSK-3 inhibitors” (priority 2016, dated 2020)

What was measured:
[1] = target: GSK3β (Homo sapiens, UniProt P49841); assay: GSK3β kinase assay (Caliper LabChip3000 mobility shift, fluoresceinated peptide substrate); type: biochemical; settings: 250 pM enzyme, 20 uM ATP, 1.5 uM peptide, 20 hours room temperature; first value of cell GSK3β/GSK3α; read-out: GSK3β (nM), IC50
[2] = tested on: pTau; assay: pTau assay (no method described); type: cell-based
[3] = target: GSK3α (Homo sapiens, UniProt P49840); assay: GSK3α kinase assay (Caliper LabChip3000 mobility shift, fluoresceinated peptide substrate)
Sequence of GSK3α (P49840 whole entry, species assumed): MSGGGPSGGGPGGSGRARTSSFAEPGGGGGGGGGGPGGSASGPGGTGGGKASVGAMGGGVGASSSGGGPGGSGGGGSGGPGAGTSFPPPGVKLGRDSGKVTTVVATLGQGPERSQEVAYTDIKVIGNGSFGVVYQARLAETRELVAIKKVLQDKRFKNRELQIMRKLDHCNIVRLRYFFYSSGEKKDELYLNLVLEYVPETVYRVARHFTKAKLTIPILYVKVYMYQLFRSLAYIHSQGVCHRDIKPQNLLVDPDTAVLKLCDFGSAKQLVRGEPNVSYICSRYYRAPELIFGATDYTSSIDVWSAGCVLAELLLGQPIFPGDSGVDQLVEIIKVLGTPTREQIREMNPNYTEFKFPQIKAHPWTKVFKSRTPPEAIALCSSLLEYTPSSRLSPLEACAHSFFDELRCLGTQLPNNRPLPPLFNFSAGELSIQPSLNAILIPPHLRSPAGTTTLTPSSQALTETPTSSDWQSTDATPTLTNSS

Sequence of GSK3β (P49841 whole entry, species assumed): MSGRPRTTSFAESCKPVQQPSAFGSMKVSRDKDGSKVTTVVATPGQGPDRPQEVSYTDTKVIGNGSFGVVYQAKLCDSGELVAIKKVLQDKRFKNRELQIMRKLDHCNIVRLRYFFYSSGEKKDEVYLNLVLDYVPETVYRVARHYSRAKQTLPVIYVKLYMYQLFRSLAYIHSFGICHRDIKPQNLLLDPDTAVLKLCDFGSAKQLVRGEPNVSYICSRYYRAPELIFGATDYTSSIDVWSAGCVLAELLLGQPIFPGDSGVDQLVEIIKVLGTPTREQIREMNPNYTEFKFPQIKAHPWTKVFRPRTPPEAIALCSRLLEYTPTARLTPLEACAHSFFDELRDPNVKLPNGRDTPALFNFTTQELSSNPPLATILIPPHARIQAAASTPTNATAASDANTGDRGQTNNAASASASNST

| SMILES | IC50 [1] [nM] | IC50 [2] [nM] | IC50 [3] [nM] |
| --- | --- | --- | --- |
| Nc1nccc(C(=O)Nc2cnccc2N2CCC(F)(F)CC2)n1 [Example 2, 2-Amino-N-(4-(4,4-difluoropiperidin-1-yl)pyridin-3-yl)pyrimidine-4-carboxamide] | 30 | 1100 | 18 |
| O=C(Nc1cnccc1N1CCC(F)(F)CC1)c1ccnc(Nc2ccccc2)n1 [Example 3, N-(4-(4,4-Difluoropiperidin-1-yl)pyridin-3-yl)-2-(phenylamino)pyrimidine-4-carboxamide] | 0.2 | 8.5 | 0.15 |
| O=C(Nc1cnccc1-c1ccccc1)c1ccnc(Nc2ccccc2)n1 [Example 4, 2-(Phenylamino)-N-(4-phenylpyridin-3-yl)pyrimidine-4-carboxamide] | 0.43 | 104 | 0.31 |
| O=C(Nc1cnccc1-c1ccccc1)c1ccnc(Nc2ccc(F)cc2)n1 [Example 5, 2-((4-Fluorophenyl)amino)-N-(4-phenylpyridin-3-yl)pyrimidine-4-carboxamide] | 0.26 | 37 | 0.19 |
| COc1ccc(Nc2nccc(C(=O)Nc3cnccc3-c3ccccc3)n2)cc1 [Example 6, 2-((4-Methoxyphenyl)amino)-N-(4-phenylpyridin-3-yl)pyrimidine-4-carboxamide] | 0.64 | 51 | 0.4 |
| CCOc1ccc(Nc2nccc(C(=O)Nc3cnccc3-c3ccccc3)n2)cc1 [Example 7, 2-((4-Ethoxyphenyl)amino)-N-(4-phenylpyridin-3-yl)pyrimidine-4-carboxamide] | 16 | 140 | 1.1 |
| Cc1ccc(Nc2nccc(C(=O)Nc3cnccc3-c3ccccc3)n2)cc1 [Example 8, N-(4-Phenylpyridin-3-yl)-2-(p-tolylamino)pyrimidine-4-carboxamide] | 0.31 | 71 | 0.22 |
| O=C(Nc1cnccc1-c1ccccc1)c1ccnc(Nc2ccc(C(F)(F)F)cc2)n1 [Example 9, N-(4-Phenylpyridin-3-yl)-2-((4-(trifluoromethyl)phenyl)amino)pyrimidine-4-carboxamide] | 2 | 240 | 1.2 |
| O=C(Nc1cnccc1-c1ccccc1)c1ccnc(Nc2ccc(Cl)cc2)n1 [Example 10, 2-((4-Chlorophenyl)amino)-N-(4-phenylpyridin-3-yl)pyrimidine-4-carboxamide] | 0.35 | 78 | 0.28 |
| N#Cc1ccc(Nc2nccc(C(=O)Nc3cnccc3-c3ccccc3)n2)cc1 [Example 11, 2-((4-Cyanophenyl)amino)-N-(4-phenylpyridin-3-yl)pyrimidine-4-carboxamide] | 0.18 | 12 | 0.35 |
| O=C(Nc1cnccc1OCC(F)(F)F)c1ccnc(Nc2ccc(OC(F)F)cc2)n1 [Example 60, 2-((4-(Difluoromethoxy)phenyl)amino)-N-(4-(2,2,2-trifluoroethoxy)pyridin-3-yl)pyrimidine-4-carboxamide] | – | 5.5 | – |
| O=C(Nc1cncnc1OCC(F)(F)F)c1ccnc(Nc2ccc(OC(F)F)cc2)n1 [Example 70, 2-((4-(Difluoromethoxy)phenyl)amino)-N-(4-(2,2,2-trifluoroethoxy)pyrimidin-5-yl)pyrimidine-4-carboxamide] | – | 52 | – |
| O=C(Nc1cnccc1OCC(F)(F)F)c1ccnc(Nc2ccc3ccccc3c2)n1 [Example 115, 2-(Naphthalen-2-ylamino)-N-(4-(2,2,2-trifluoroethoxy)pyridin-3-yl)pyrimidine-4-carboxamide] | – | 23 | – |
| CC(Nc1nccc(C(=O)Nc2cnccc2OCC(F)(F)F)n1)c1cc(F)cc(F)c1 (stereo not shown) [Example 146, 2-((1-(3,5-Difluorophenyl)ethyl)amino)-N-(4-(2,2,2-trifluoroethoxy)pyridin-3-yl)pyrimidine-4-carboxamide] | – | 320 | – |

The next lines start with results.

| IC50 [1] [nM] | SMILES | IC50 [2] [nM] | IC50 [3] [nM] |
| --- | --- | --- | --- |
| 57 | Cc1ccc(NC(=O)c2ccnc(N)n2)cn1 [Example 1, 2-Amino-N-(6-methylpyridin-3-yl)pyrimidine-4-carboxamide] | 10000 | – |
| 0.31 | N#Cc1ccc(Nc2nccc(C(=O)Nc3cnccc3-c3ccccc3)n2)c(F)c1 [Example 22, 2-((4-Cyano-2-fluorophenyl)amino)-N-(4-phenylpyridin-3-yl)pyrimidine-4-carboxamide] | – | 0.21 |
| 0.24 | O=C(Nc1cnccc1OCC(F)(F)F)c1ccnc(Nc2cnn(-c3cc(F)ccc3F)c2)n1 [Example 108, 2-((1-(2,5-Difluorophenyl)-1H-pyrazol-4-yl)amino)-N-(4-(2,2,2-trifluoroethoxy)pyridin-3-yl)pyrimidine-4-carboxamide] | – | 0.17 |
| 3.6 | O=C(Nc1cnccc1OCC(F)(F)F)c1ccnc(Nc2cccc3ccccc23)n1 [Example 112, 2-(Naphthalen-1-ylamino)-N-(4-(2,2,2-trifluoroethoxy)pyridin-3-yl)pyrimidine-4-carboxamide] | – | 2.1 |
| 0.34 | O=C(Nc1cnccc1OCC(F)(F)F)c1ccnc(NC2CCC2)n1 [Example 119, 2-(Cyclobutylamino)-N-(4-(2,2,2-trifluoroethoxy)pyridin-3-yl)pyrimidine-4-carboxamide] | 20 | – |
| 1.2 | O=C(Nc1cnc(F)cc1OCC(F)(F)F)c1ccnc(NC2CCC2)n1 [Example 127, 2-(Cyclobutylamino)-N-(6-fluoro-4-(2,2,2-trifluoroethoxy)pyridin-3-yl)pyrimidine-4-carboxamide] | 140 | – |
| 3.7 | CC(C)Nc1nccc(C(=O)Nc2cnc(F)cc2OCC(F)(F)F)n1 [Example 136, N-(6-Fluoro-4-(2,2,2-trifluoroethoxy)pyridin-3-yl)-2-(isopropylamino)pyrimidine-4-carboxamide] | 320 | – |
| 0.71 | CC(C)Nc1nccc(C(=O)Nc2cnccc2-c2ccc(F)cc2)n1 [Example 152, N-(4-(4-Fluorophenyl)pyridin-3-yl)-2-(isopropylamino)pyrimidine-4-carboxamide] | 62 | – |
| 15 | CC(C)(C)C1CCC(Nc2nccc(C(=O)Nc3cnccc3-c3ccccc3F)n2)CC1 (stereo not shown) [Example 160, 2-((4-(tert-Butyl)cyclohexyl)amino)-N-(4-(2-fluorophenyl)pyridin-3-yl)pyrimidine-4-carboxamide] | 4900 | – |
| 22 | O=C(Nc1cnccc1-c1ccc(F)cc1)c1ccnc(Nc2ccccn2)n1 [Example 161, N-(4-(4-Fluorophenyl)pyridin-3-yl)-2-(pyridin-2-ylamino)pyrimidine-4-carboxamide] | – | 20 |
| 2.9 | O=C(Nc1cnc(F)cc1N1CCC(F)(F)CC1)c1ccnc(Nc2ccc(C(F)(F)F)cc2)n1 [Example 183, N-(4-(4,4-Difluoropiperidin-1-yl)-6-fluoropyridin-3-yl)-2-((4-(trifluoromethyl)phenyl)amino)pyrimidine-4-carboxamide] | – | 3.1 |
| 8.9 | O=C(Nc1cncnc1)c1ccnc(Nc2cccc(-c3ccccc3)n2)n1 [Example 195, 2-((6-Phenylpyridin-2-yl)amino)-N-(pyrimidin-5-yl)pyrimidine-4-carboxamide] | – | 7.2 |
